Tests used:
[1] = system: PC3 (prostate); assay: In vitro cytotoxic activity MTT assay, PC3; type: cell-based; details: Homo sapiens, PC-3; PC3 cells, exposed for 96 hours; read-out: IC50, 50% inhibition of cell proliferation, PC3 (prostate)
Method: (§1) Compounds 1-16 were screened for their in vitro cytotoxic activity utilizing a 3-(4,5-dimethyl-thiazol-2-yl)-2,5-diphenyltetrazolium bromide (MTT) assay against selected cancer human cell lines consisting of PC3 (prostate), HCT116 (colon), A375 (melanoma), H1299 (lung), MIAPaCa-2 (pancreas), HL60 (leukemia), MCF7 (breast), MDA-MB-231 (breast) (T. Mosmann, J. Immunol. Meth., 1983, 65, 55-63). The cells were cultured at 37° C. in RMPI1640 medium supplemented with 10% fetal bovine serum, 50 IU/mL penicillin, and 50 μg/mL streptomycin in a 5% CO2 incubator. All cells were sub-cultured 3 times/week by trypsinisation. Viable cells were seeded and allowed to adhere for 12 h before a test drug was added in 96-well plates at an initial density of 1.0×10^5 cells/mL. Tumour cell lines were separately exposed to various concentrations of the tested compounds followed by incubation at a temperature of 37° C. during 96 h inside a medium of fresh RMPI 1640. Cells were subsequently incubated at 37° C. using MTT at 0.5 mg/mL during 4 h. After removal of supernatant, formazan crystals were dissolved in isopropanol and the optical density was measured at 570 nm. CX-4945 was used as a positive control.

[2] = system: HCT116 (colon); assay: In vitro cytotoxic activity MTT assay, HCT116; type: cell-based; details: Homo sapiens, HCT-116; HCT116 cells, exposed for 96 hours; read-out: IC50, 50% inhibition of cell proliferation, HCT116 (colon)
Method: as §1

[3] = system: A375 (melanoma); assay: In vitro cytotoxic activity MTT assay, A375; type: cell-based; details: Homo sapiens, A-375; A375 cells, exposed for 96 hours; read-out: IC50, 50% inhibition of cell proliferation, A375 (melanoma)
Method: as §1

[4] = system: H1299 (lung); assay: In vitro cytotoxic activity MTT assay, H1299; type: cell-based; details: Homo sapiens, NCI-H1299; H1299 cells, exposed for 96 hours; read-out: IC50, 50% inhibition of cell proliferation, H1299 (lung)
Method: as §1

[5] = system: MIAPaCa-2 (pancreas); assay: In vitro cytotoxic activity MTT assay, MIAPaCa-2; type: cell-based; details: Homo sapiens, MIA PaCa-2; MIAPaCa-2 cells, exposed for 96 hours; read-out: IC50, 50% inhibition of cell proliferation, MIAPaCa-2 (pancreas)
Method: as §1

[6] = system: HL60 (leukemia); assay: In vitro cytotoxic activity MTT assay, HL60; type: cell-based; details: Homo sapiens, HL-60; HL60 cells, exposed for 96 hours; read-out: IC50, 50% inhibition of cell proliferation, HL60 (leukemia)
Method: as §1

[7] = system: MCF7 (breast); assay: In vitro cytotoxic activity MTT assay, MCF7; type: cell-based; details: Homo sapiens; MCF7 cells, exposed for 96 hours; read-out: IC50, 50% inhibition of cell proliferation, MCF7 (breast)
Method: as §1

[8] = system: MDA-MB-231 (breast); assay: In vitro cytotoxic activity MTT assay, MDA-MB-231; type: cell-based; details: Homo sapiens; MDA-MB-231 cells, exposed for 96 hours; read-out: IC50, 50% inhibition of cell proliferation, MDA-MB-231 (breast)
Method: as §1

[9] = target: T1, recombinant human CK2 (Homo sapiens, UniProt P68400); assay: CK2 Kinase Assay (33P-ATP, filter plate); type: biochemical; details: final ATP concentration 15 μM, 10 min at 30° C.; read-out: protein kinase CK2 IC50
T1 construct: purchased Millipore
Method: CK2 Kinase Assay was conducted using the protocol as described in Pierre F. et al; J. Med. Chem. 2011, 54, 635-654. The tested compounds in aqueous solution were added at a volume of 10 μL to a reaction mixture comprising 10 μL of assay dilution buffer (ADB; 20 mM MOPS, pH 7.2, 25 mM β-glycerol phosphate, 5 mM EGTA, 1 mM sodium orthovanadate, and 1 mM dithiothreitol), 10 μL of substrate peptide (RRRDDDSDDD, dissolved in ADB at a concentration of 1 mM), 10 μL of recombinant human CK2 (RRββ-holoenzyme, 25 ng dissolved in ADB; Millipore). Reactions were initiated by the addition of 10 μL of ATP solution (90% 75 mMMgCl2, 75 μM ATP (final ATP concentration:15 μM) dissolved in ADB; 10% [γ-33P] ATP (stock 1 mCi/100 μL; 3000 Ci/mmol (Perkin-Elmer) and maintained for 10 min at 30° C. The reactions were quenched with 100 μL of 0.75% phosphoric acid and then transferred to and filtered through a phosphor cellulose filter plate (Millipore). After washing each well five times with 0.75% phosphoric acid, the plate was dried under vacuum for 5 min and, following the addition of 15 μL of scintillation fluid to each well, the residual radioactivity was measured using a Wallac luminescence counter. The IC50 values were derived from eight concentrations of test inhibitors.

T1 sequence (P68400 whole entry): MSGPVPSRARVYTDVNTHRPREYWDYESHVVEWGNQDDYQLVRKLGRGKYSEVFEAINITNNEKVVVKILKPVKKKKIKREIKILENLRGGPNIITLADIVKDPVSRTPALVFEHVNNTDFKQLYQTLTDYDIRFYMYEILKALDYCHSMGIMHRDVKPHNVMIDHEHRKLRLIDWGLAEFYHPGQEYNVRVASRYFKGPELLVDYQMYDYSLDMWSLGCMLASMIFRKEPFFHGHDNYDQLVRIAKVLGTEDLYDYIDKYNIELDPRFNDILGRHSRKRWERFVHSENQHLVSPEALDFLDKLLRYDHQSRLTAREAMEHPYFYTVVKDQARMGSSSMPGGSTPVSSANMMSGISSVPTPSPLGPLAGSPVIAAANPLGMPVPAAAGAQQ
T1 sequence (P67870 whole entry partner): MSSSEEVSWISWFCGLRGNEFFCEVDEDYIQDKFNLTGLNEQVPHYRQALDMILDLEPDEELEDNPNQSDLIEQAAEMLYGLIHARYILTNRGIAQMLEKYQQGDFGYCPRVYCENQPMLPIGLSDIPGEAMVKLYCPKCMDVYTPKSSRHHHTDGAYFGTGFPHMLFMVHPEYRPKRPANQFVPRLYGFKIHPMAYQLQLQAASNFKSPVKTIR

## O=C(O)c1cc2nc(Nc3cccc(Cl)c3)c3ccncc3c2[nH]1 [Compound 1, 5-((3-chlorophenyl)amino)-1H-pyrrolo[3,2-c][2,6]naphthyridine-2-carboxylic acid]
[1]
  IC50: 2400 nM
[2]
  IC50: 1100 nM
[3]
  IC50: 2600 nM
[4]
  IC50: 1500 nM
[5]
  IC50: 900 nM
[6]
  IC50: 2200 nM
[7]
  IC50: 3500 nM
[8]
  IC50: 3900 nM
[9]
  IC50: 21 nM

Reference: patent publication US12173003B1, “Pyrrolo[3,2-C][2,6]naphthyridine-2-carboxylic acid compounds as CK2 inhibitors” (KING FAISAL UNIVERSITY, priority 2023, dated 2024)
